Test system: 323965-272-R-J2-PDC complex spheroid viability
Assay: Anticancer human tumor 323965-272-R-J2-PDC patient-derived pancreatic carcinoma cell line growth inhibition [CLK]
Conditions: for IC50: curve of first compound; for viability, T/C: stronger effect = lower value; active = viability on the fitted dose curve at most 10% of control; inactive = the rest
Summary of the method: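 Multi-cell-type spheroids combined patient-derived tumor cells with HUVEC endothelial cells and human mesenchymal stem cells. Paired agents were dosed in half-log steps down from about clinical Cmax, or from 10 microM where Cmax was unknown.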

[1] = second compound 0.0316 µM, first compound 0.0316 µM
[2] = second compound 0.0316 µM, first compound 0.1 µM
[3] = second compound 0.0316 µM, first compound 0.316 µM
[4] = second compound 0.0316 µM, first compound 1 µM
[5] = second compound 0.1 µM, first compound 0.0316 µM
[6] = second compound 0.1 µM, first compound 0.1 µM
[7] = second compound 0.1 µM, first compound 0.316 µM
[8] = second compound 0.1 µM, first compound 1 µM
[9] = second compound 0.316 µM, first compound 0.0316 µM
[10] = second compound 0.316 µM, first compound 0.1 µM
[11] = second compound 0.316 µM, first compound 0.316 µM
[12] = second compound 0.316 µM, first compound 1 µM
[13] = second compound 1 µM, first compound 0.0316 µM
[14] = second compound 1 µM, first compound 0.1 µM
[15] = second compound 1 µM, first compound 0.316 µM
[16] = second compound 1 µM, first compound 1 µM
[17] = second compound 3.16 µM, first compound 0.0316 µM
[18] = second compound 3.16 µM, first compound 0.1 µM
[19] = second compound 3.16 µM, first compound 0.316 µM
[20] = second compound 3.16 µM, first compound 1 µM
[21] = second compound 10 µM, first compound 0.0316 µM
[22] = second compound 10 µM, first compound 0.1 µM
[23] = second compound 10 µM, first compound 0.316 µM
[24] = second compound 10 µM, first compound 1 µM
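Note: spheroids exposed to agents for seven days before readout.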
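Throughout, for viability, T/C: percent of DMSO vehicle control wells so 100% = untreated growth.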

CC(=O)O[C@H]1C(=O)[C@@]2(C)[C@H]([C@H](OC(=O)c3ccccc3)[C@]3(O)C[C@H](OC(=O)[C@H](O)[C@@H](NC(=O)c4ccccc4)c4ccccc4)C(C)=C1C3(C)C)[C@]1(OC(C)=O)CO[C@@H]1C[C@@H]2O + CN1CCN(c2cc(C(=O)Nc3cc4cc(-c5cnn(C)c5)ccc4cn3)ccn2)CC1
active: viability, T/C [13] 3.79% | viability, T/C [14] 3.19% | viability, T/C [15] 3.35% | viability, T/C [16] 2.94% | viability, T/C (second compound 1 µM, first compound 3.16 µM) 3.34% | viability, T/C (second compound 1 µM, first compound 10 µM) 3.64% | viability, T/C [17] 3.67% | viability, T/C [18] 6.44% | viability, T/C [19] 4.39% | viability, T/C [20] 4.7% | viability, T/C (second compound 3.16 µM, first compound 3.16 µM) 3.88% | viability, T/C (second compound 3.16 µM, first compound 10 µM) 5.16% | viability, T/C [21] 4.53% | viability, T/C [22] 4.6% | viability, T/C [23] 4.22% | viability, T/C [24] 3.5% | viability, T/C (second compound 10 µM, first compound 3.16 µM) 3.95% | viability, T/C (second compound 10 µM, first compound 10 µM) 3.79%
inactive: viability, T/C [1] 33.2% | viability, T/C [2] 34.3% | viability, T/C [3] 31.7% | viability, T/C [4] 33% | viability, T/C (second compound 0.0316 µM, first compound 3.16 µM) 34.8% | viability, T/C (second compound 0.0316 µM, first compound 10 µM) 30.4% | viability, T/C [5] 28.3% | viability, T/C [6] 28.1% | viability, T/C [7] 24.7% | viability, T/C [8] 25.9% | viability, T/C (second compound 0.1 µM, first compound 3.16 µM) 26.7% | viability, T/C (second compound 0.1 µM, first compound 10 µM) 28.5% | viability, T/C [9] 19.8% | viability, T/C [10] 19.3% | viability, T/C [11] 19% | viability, T/C [12] 19.5% | viability, T/C (second compound 0.316 µM, first compound 3.16 µM) 17.2% | viability, T/C (second compound 0.316 µM, first compound 10 µM) 16.9%
< 31.6 nM: IC50 (second compound 0.0316 µM) | IC50 (second compound 0.1 µM) | IC50 (second compound 0.316 µM) | IC50 (second compound 1 µM) | IC50 (second compound 3.16 µM) | IC50 (second compound 10 µM)

CCc1c2c(nc3ccc(O)cc13)-c1cc3c(c(=O)n1C2)COC(=O)[C@]3(O)CC + CN1CCN(c2cc(C(=O)Nc3cc4cc(-c5cnn(C)c5)ccc4cn3)ccn2)CC1
inactive: viability, T/C (second compound 0.0316 µM, first compound 0.00316 µM) 77.2% | viability, T/C (second compound 0.0316 µM, first compound 0.01 µM) 41.7% | viability, T/C [1] 28.6% | viability, T/C [2] 27.2% | viability, T/C [3] 25.7% | viability, T/C [4] 24.1% | viability, T/C (second compound 0.1 µM, first compound 0.00316 µM) 42.6% | viability, T/C (second compound 0.1 µM, first compound 0.01 µM) 33.3% | viability, T/C [5] 26% | viability, T/C [6] 24.7% | viability, T/C [7] 20.1% | viability, T/C [8] 19.7% | viability, T/C (second compound 0.316 µM, first compound 0.00316 µM) 22.2% | viability, T/C (second compound 0.316 µM, first compound 0.01 µM) 23.1% | viability, T/C [9] 18.6% | viability, T/C [10] 20.3% | viability, T/C [11] 19.1% | viability, T/C [12] 6.86%
active: viability, T/C (second compound 1 µM, first compound 0.00316 µM) 3.79% | viability, T/C (second compound 1 µM, first compound 0.01 µM) 3.36% | viability, T/C [13] 2.56% | viability, T/C [14] 2.23% | viability, T/C [15] 1.14% | viability, T/C [16] 0.61% | viability, T/C (second compound 3.16 µM, first compound 0.00316 µM) 4.21% | viability, T/C (second compound 3.16 µM, first compound 0.01 µM) 3.48% | viability, T/C [17] 3.05% | viability, T/C [18] 1.79% | viability, T/C [19] 1.1% | viability, T/C [20] 0.61% | viability, T/C (second compound 10 µM, first compound 0.00316 µM) 4.27% | viability, T/C (second compound 10 µM, first compound 0.01 µM) 6.63% | viability, T/C [21] 2.33% | viability, T/C [22] 1.69% | viability, T/C [23] 0.96% | viability, T/C [24] 0.59%
< 3.16 nM: IC50 (second compound 0.1 µM) | IC50 (second compound 0.316 µM) | IC50 (second compound 1 µM) | IC50 (second compound 3.16 µM) | IC50 (second compound 10 µM)
7.63 nM: IC50 (second compound 0.0316 µM)

— PubChem BioAssay AID2060619 (Molecular Pharmacology Branch, DTP, NCI, 2025)
